Assays:
Format in all cases: cell-based, Chinese hamster
[1] = tested on: CHO DG44 cell line; experiment: Effective concentration range of THF: suspension growth of CHO DG44 in HY-CDM media
Excerpt: (§1) 1. Cell line and media: CHO DG44 cell line was used as a DHFR-deficient cell line. The cell line was passaged 80 times or more and suspension adapted in HY-CDM (in-house) media as chemically defined media. The suspension-adapted cell line was used to evaluate the influence of tetrahydrofolate (THF) and dihydrofolate (DHF) and the growth characteristics in commercial chemically defined media. The HY-CDM media were composed of chemically defined components only. Each HY-CDM medium further included a growth factor. HY-CDM media used in Examples 1, 3, and 4 were free of an animal derived lipid mixture, and HY-CDM media used in Example 2 were supplemented with cod liver oil.
(§2) 2. Cell suspension culture: The cell line was inoculated at a density of 4×10^5 cells/ml and cultured in an Erlenmeyer flask with a 30 ml/125 ml working volume on an orbital shaker at 120 rpm under humidified conditions at 37° C. and 5% CO2. Before inoculation, the cells were centrifuged at 1,000 rpm (×162 g) for 5 min, the supernatant was discarded, and the remaining cells were dispersed into single cells in the heated medium. The cells were passaged three times to minimize the influence of the remaining medium under the experimental conditions. The subcultured cells were evaluated.
(§3) 3. Density of live cells: The density of live cells was analyzed using a hemocytometer (Neubauer improved bright-line, Marienfeld, Germany), an inverted microscope (CK30, Olympus, Japan), and trypan blue dye exclusion.
In this example, the effective concentration range of THF inducing the suspension growth of the CHO DG44 cell line in the HY-CDM media was evaluated with varying amounts of THF.
To this end, the CHO DG44 cell line was passaged three time at a THF concentration of 0-480 mg/L, and their maximum cell densities and doubling times were measured.

[2] = tested on: CHO DG44 cell line; experiment: Subculture characteristics of CHO DG44 in HY-CDM medium supplemented with THF; conditions: 1.6 mg/L THF, HY-CDM with cod liver oil
Excerpt: as §1, §2, §3
A CHO DG44 cell line frozen-stored in an HY-CDM medium supplemented with 1.6 mg/L THF was thawed and subcultured every 2 days. On day 2 after the third passage, a cell density of 21.9±2.2×10^5 cells/ml and a doubling time of 20.3±1.3 h were observed, which were about 28% higher and about 20% more rapid than those of the control (17.1±3.4×10^5 cells/ml and 25.3±3.7 h), respectively (Table 2). The HY-CDM medium included a commercial lipid mixture containing cod liver oil as an animal derived component.

[3] = tested on: CHO DG44 cell line; experiment: Growth of CHO DG44 cell line in commercial chemically defined media with and without THF; conditions: six commercial chemically defined media
Excerpt: as §1
2. Cell suspension culture: The cell line was inoculated at a density of 4×10^5 cells/ml and cultured in an Erlenmeyer flask with a 30 ml/125 ml working volume on an orbital shaker at 120 rpm under humidified conditions at 37° C. and 5% CO2. […] The subcultured cells were evaluated.
as §3
In this example, the versatility of the effect of THF addition to induce cell growth was evaluated. […]

[4] = after the third passage, subcultured every 2 days

## tetrahydrofolate [THF]
[1]; THF 0.0016 mg/L, HY-CDM
  Doubling time, Average: 24.7 h
  Doubling time, Passage 1: 26.8 h
  Doubling time, Passage 2: 27.2 h
  Doubling time, Passage 3: 20.3 h
  Maximum cell density, Average: 18.9 ×10^5 cells/ml
  Maximum cell density, Passage 1: 19.8 ×10^5 cells/ml
  Maximum cell density, Passage 2: 18.2 ×10^5 cells/ml
  Maximum cell density, Passage 3: 18.8 ×10^5 cells/ml
[1]; THF 0.0031 mg/L, HY-CDM
  Doubling time, Average: 24.9 h
  Doubling time, Passage 1: 27.1 h
  Doubling time, Passage 2: 27.1 h
  Doubling time, Passage 3: 20.6 h
  Maximum cell density, Average: 19.8 ×10^5 cells/ml
  Maximum cell density, Passage 1: 20.6 ×10^5 cells/ml
  Maximum cell density, Passage 2: 18.2 ×10^5 cells/ml
  Maximum cell density, Passage 3: 20.5 ×10^5 cells/ml
[1]; THF 0.0063 mg/L, HY-CDM
  Doubling time, Average: 23.6 h
  Doubling time, Passage 1: 26.4 h
  Doubling time, Passage 2: 24.3 h
  Doubling time, Passage 3: 20.1 h
  Maximum cell density, Average: 21.3 ×10^5 cells/ml
  Maximum cell density, Passage 1: 21.4 ×10^5 cells/ml
  Maximum cell density, Passage 2: 21.2 ×10^5 cells/ml
  Maximum cell density, Passage 3: 21.3 ×10^5 cells/ml
[1]; THF 0.0125 mg/L, HY-CDM
  Doubling time, Average: 23.5 h
  Doubling time, Passage 1: 24.6 h
  Doubling time, Passage 2: 25.5 h
  Doubling time, Passage 3: 20.3 h
  Maximum cell density, Average: 21.5 ×10^5 cells/ml
  Maximum cell density, Passage 1: 23.6 ×10^5 cells/ml
  Maximum cell density, Passage 2: 18.8 ×10^5 cells/ml
  Maximum cell density, Passage 3: 22.0 ×10^5 cells/ml
[1]; THF 0.0250 mg/L, HY-CDM
  Doubling time, Average: 22.5 h
  Doubling time, Passage 1: 25.8 h
  Doubling time, Passage 2: 23.2 h
  Doubling time, Passage 3: 18.6 h
  Maximum cell density, Average: 20.5 ×10^5 cells/ml
  Maximum cell density, Passage 1: 22.4 ×10^5 cells/ml
  Maximum cell density, Passage 2: 18.0 ×10^5 cells/ml
  Maximum cell density, Passage 3: 21.0 ×10^5 cells/ml
[1]; THF 0.0500 mg/L, HY-CDM
  Doubling time, Average: 20.9 h
  Doubling time, Passage 1: 22.8 h
  Doubling time, Passage 2: 21.7 h
  Doubling time, Passage 3: 18.2 h
  Maximum cell density, Average: 20.5 ×10^5 cells/ml
  Maximum cell density, Passage 1: 22.0 ×10^5 cells/ml
  Maximum cell density, Passage 2: 18.5 ×10^5 cells/ml
  Maximum cell density, Passage 3: 21.0 ×10^5 cells/ml
[1]; THF 0.1000 mg/L, HY-CDM
  Doubling time, Average: 21.2 h
  Doubling time, Passage 1: 22.7 h
  Doubling time, Passage 2: 22.7 h
  Doubling time, Passage 3: 18.2 h
  Maximum cell density, Average: 24.8 ×10^5 cells/ml
  Maximum cell density, Passage 1: 27.6 ×10^5 cells/ml
  Maximum cell density, Passage 2: 21.8 ×10^5 cells/ml
  Maximum cell density, Passage 3: 24.9 ×10^5 cells/ml
[1]; THF 0.2000 mg/L, HY-CDM
  Doubling time, Average: 20.8 h
  Doubling time, Passage 1: 22.7 h
  Doubling time, Passage 2: 21.4 h
  Doubling time, Passage 3: 18.3 h
  Maximum cell density, Average: 25.9 ×10^5 cells/ml
  Maximum cell density, Passage 1: 26.6 ×10^5 cells/ml
  Maximum cell density, Passage 2: 25.0 ×10^5 cells/ml
  Maximum cell density, Passage 3: 26.1 ×10^5 cells/ml
[1]; THF 0.4 mg/L, HY-CDM
  Cell density increase: about 56%
[1]; THF 0.4000 mg/L, HY-CDM
  Doubling time, Average: 22.1 h
  Doubling time, Passage 1: 22.7 h
  Doubling time, Passage 2: 24.5 h
  Doubling time, Passage 3: 19.2 h
  Maximum cell density, Average: 29.7 ×10^5 cells/ml
  Maximum cell density, Passage 1: 30.2 ×10^5 cells/ml
  Maximum cell density, Passage 2: 28.1 ×10^5 cells/ml
  Maximum cell density, Passage 3: 30.9 ×10^5 cells/ml
[1]; THF 0.8 mg/L, HY-CDM
  Cell density increase: ~73%
[1]; THF 0.8000 mg/L, HY-CDM
  Doubling time, Average: 20.7 h
  Doubling time, Passage 1: 22.1 h
  Doubling time, Passage 2: 22.2 h
  Doubling time, Passage 3: 17.6 h
  Maximum cell density, Average: 35.3 ×10^5 cells/ml
  Maximum cell density, Passage 1: 34.2 ×10^5 cells/ml
  Maximum cell density, Passage 2: 35.4 ×10^5 cells/ml
  Maximum cell density, Passage 3: 36.4 ×10^5 cells/ml
[1]; THF 1.6000 mg/L, HY-CDM
  Doubling time, Average: 21.3 h
  Doubling time, Passage 1: 21.4 h
  Doubling time, Passage 2: 22.0 h
  Doubling time, Passage 3: 20.5 h
  Maximum cell density, Average: 46.9 ×10^5 cells/ml
  Maximum cell density, Passage 1: 46.0 ×10^5 cells/ml
  Maximum cell density, Passage 2: 47.0 ×10^5 cells/ml
  Maximum cell density, Passage 3: 47.8 ×10^5 cells/ml
[1]; THF 16.0000 mg/L, HY-CDM
  Doubling time, Average: 21.2 h
  Doubling time, Passage 1: 22.5 h
  Doubling time, Passage 2: 21.2 h
  Doubling time, Passage 3: 19.8 h
  Maximum cell density, Average: 50.1 ×10^5 cells/ml
  Maximum cell density, Passage 1: 52.0 ×10^5 cells/ml
  Maximum cell density, Passage 2: 48.8 ×10^5 cells/ml
  Maximum cell density, Passage 3: 49.6 ×10^5 cells/ml
[1]; THF 0.025-16 mg/L, HY-CDM
  Doubling time: 21.3 ± 0.7 h
  More rapid cell growth compared to control: ≥ 14%
[1]; THF 0.1-160 mg/L, chemically defined media
  Effect on cell growth: effective in improving the cell growth
[1]; THF 0.1-0.2 ma/L, HY-CDM
  Cell growth increase: ≥ 35%
[1]; THF 160 mg/L, HY-CDM
  Cell density increase: ~90%
[1]; THF 160.0000 mg/L, HY-CDM
  Doubling time, Average: 23.0 h
  Doubling time, Passage 1: 25.8 h
  Doubling time, Passage 2: 21.6 h
  Doubling time, Passage 3: 21.6 h
  Maximum cell density, Average: 35.7 ×10^5 cells/ml
  Maximum cell density, Passage 1: 33.0 ×10^5 cells/ml
  Maximum cell density, Passage 2: 36.4 ×10^5 cells/ml
  Maximum cell density, Passage 3: 37.6 ×10^5 cells/ml
[1]; THF 480 mg/L, HY-CDM
  Effect on cell growth: inhibited the cell growth
[1]; THF 480.0000 mg/L, HY-CDM
  Maximum cell density, Average: 06.3 ×10^5 cells/ml
  Maximum cell density, Passage 1: 09.4 ×10^5 cells/ml
  Maximum cell density, Passage 2: 04.6 ×10^5 cells/ml
  Maximum cell density, Passage 3: 04.8 ×10^5 cells/ml
[1]; THF 1.6-16 mg/L, HY-CDM
  Cell density increase (maximum): ≥ 155%
[2]; after the third passage
  Cell density higher than control: about 28%
  Doubling time more rapid than control: about 20%
[2]; [4]
  Cell density on day 2: 21.9±2.2 ×10^5 cells/ml
  Doubling time: 20.3 ± 1.3 h
[2]; number of subcultures 3
  Density of live cells on day 2 after culture: 19.2 ×10^5 cells/ml
  Doubling time: 21.6 h
[2]; number of subcultures 4
  Density of live cells on day 2 after culture: 22.3 ×10^5 cells/ml
  Doubling time: 21.1 h
[2]; number of subcultures 5
  Density of live cells on day 2 after culture: 19.1 ×10^5 cells/ml
  Doubling time: 18.8 h
[2]; number of subcultures 6
  Density of live cells on day 2 after culture: 23.3 ×10^5 cells/ml
  Doubling time: 20.2 h
[2]; number of subcultures 7
  Density of live cells on day 2 after culture: 23.5 ×10^5 cells/ml
  Doubling time: 21.3 h
[2]; number of subcultures 8
  Density of live cells on day 2 after culture: 24.1 ×10^5 cells/ml
  Doubling time: 18.6 h
[3]
  Effect on cell density and growth rate: increased the cell density and growth rate

From US11186817B2, “Chemically defined cell culture media additive” (IUCF-HYU (INDUSTRY-UNIVERSITY COOPERATION FOUNDATION …, priority 2014, dated 2021)
